Measurements: patent US10226452B2, “Benzoxazolone derivatives as acid ceramidase inhibitors, and their use as medicaments” (FONDAZIONE ISTITUTO ITALIANO DI TECNOLOGIA, priority 2014, dated 2019)
“Also recorded” adds a separate entry of the source.

Columns and labels:
[1] = target: T1, AC (Homo sapiens (Human), UniProt Q13510); assay: AC activity in A375 human melanoma cells; assay type: cell-based; conditions: 25 μM, evident at 30 minutes, lasted up to 3 hours
Experimental: (§1) Specifically, FIG. 1 evidences the effects of compound of Example 7 or vehicle (0.1% DMSO in DMEM) on AC activity and ceramide levels in A375 (left panel) or MeWo (right panel) human melanoma cell lines. (A-B) Intact cells were treated with compound of Example 7 (25 μM) or vehicle and AC activity was measured 30 minutes or 3 hours later in cell lysates. (B) Intact cells were exposed to compound of Example 7 (25 μM) for 2 hours or 24 hours and medium chain ceramides (C-D), long chain ceramides (E-F) and dihydroceramides (G-H) were quantified. Results are expressed as mean±s.e.m. (n=3). *p<0.05, **p<0.01, ***p<0.001 vs vehicle, two-way ANOVA followed by Dunnet.
(§2) hAC protein preparation (10 μg) was preincubated with inhibitors (final DMSO concentration 1%) in assay buffer (100 mM sodium phosphate, 0.1% Nonidet P-40, 150 mM NaCl, 3 mM DTT, 100 mM sodium citrate, pH 4.5) for 30 min at 37° C. Reactions were started by the addition of 50 μM N-lauroyl ceramide (Nu-Chek Prep, Elysian, Minn.) and carried on for 30 min at 37° C. […] The organic phases were collected, dried under nitrogen and analyzed by UPLC/MS (Acquity, Waters). […]
(§3) The [M−H]^− ion was monitored in the selected-ion monitoring mode (m/z values: lauric acid 199, 11-lauroleic acid 197.35). […] Inhibition of AC activity was calculated as reduction of lauric acid in the samples compared to vehicle controls. […]

[2] = target: T1, AC; assay: AC activity in MeWo human melanoma cells; assay type: cell-based; conditions: 25 μM, evident at 30 minutes, lasted up to 3 hours
Experimental: as §1, §2, §3

[3] = target: AC (Mus musculus (Mouse), UniProt Q9WV54); assay: AC activity in RAW264.7 murine cell line; assay type: cell-based; conditions: Raw264.7 cells; 0.1-20 μM; 3 hours
AC (Mus musculus (Mouse), UniProt Q9WV54), sequence (Q9WV54 19-141): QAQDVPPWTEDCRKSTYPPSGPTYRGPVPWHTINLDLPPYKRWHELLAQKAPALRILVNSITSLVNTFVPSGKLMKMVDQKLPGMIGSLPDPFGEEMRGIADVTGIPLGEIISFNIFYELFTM
AC (Mus musculus (Mouse), UniProt Q9WV54), sequence (Q9WV54 142-394): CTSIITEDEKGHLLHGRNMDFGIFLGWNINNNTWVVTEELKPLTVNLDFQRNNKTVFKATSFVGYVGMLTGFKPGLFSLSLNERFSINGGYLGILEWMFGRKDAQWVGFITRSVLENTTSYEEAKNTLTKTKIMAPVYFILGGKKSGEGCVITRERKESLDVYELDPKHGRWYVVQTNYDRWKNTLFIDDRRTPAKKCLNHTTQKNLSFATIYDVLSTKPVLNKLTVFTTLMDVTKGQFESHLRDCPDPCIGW
Experimental: Specifically it is reported the concentration response of compound of Example 25 or vehicle (0.1% DMSO in DMEM) on AC activity and ceramide levels in RAW264.7 murine cell line. (A) Intact cells were treated with compound of Example 25 (0.1-20 μM) or vehicle and AC activity was measured 3 hours later in cell lysates. (B-E) Intact cells were exposed to compound of Example 25 (0.1-20 μM) for 3 hours and sphingosine/sphinganine (B), dihydroceramides (C), medium chain ceramides (D), long chain ceramides (E) were quantified. Results are expressed as mean±s.e.m. (n=3). *p<0.05, **p<0.01, ***p<0.001 vs vehicle, two-way ANOVA followed by Dunnet.
as §2, §3

[4] = test system: proteases (aspartic, cysteine, and serine), cyclooxygenases, lipoxygenases and group IV phospholipase (sPLA2); assay: off-target test on a set of enzymes (overall statement); assay type: biochemical; conditions: 10 μM
Text: (§4) Compound of Example 25 falling in both Formula (I) and (Ia) was selected to be tested for off-target effects on a set of enzymes that include proteases (aspartic, cysteine, and serine), cyclooxygenases as well as lipoxygenases and group IV phospholipase (sPLA2) (Table 3). [table]

[5] = test system: MAG-hydrolyzing enzymes including MGL, HSL and EL; assay: MAG-hydrolysing activity ex vivo in mice; parameters: species or system mouse; conditions: 10 mg-kg^−1 intraperitoneal, 3 h after injection
Experimental: Compound of Example 25 was also tested for its ability to inhibit the hydrolytic degradation of diacylglycerols (DAG) and monoacylglycerols (MAG) in live mice. DAG and MAG hydrolysis is catalyzed by multiple serine lipases, including diacylglycerol lipase (DGL), monoacylglycerol lipase (MGL), hormone-sensitive lipase (HSL), and endothelial lipase. Thus, by monitoring the effects of compound of Example 25 on MAG-hydrolysing activity as well as DAG and MAG levels ex vivo, we can gain important insights as to the ability of the compound to interfere with those lipases in a physiologically relevant setting.
Specifically FIG. 8 evidences the effect of Example 25 or vehicle (DMSO) on MGL activity in brain, liver, fat and heart. MAG-hydrolysing activity was measured 3 h after intraperitoneal injection of compound of Example 25 (10 mg-kg-1). Results are expressed as mean±s.e.m. (n=5).
Tissue was homogenized in ice-cold Tris-HCl (50 mM, pH7.5, 10 vol) containing sucrose (0.32 M). Homogenates were centrifuged at 1,000×g for 10 min, and the supernatants (5 μg of protein) were incubated at 37° C. for 30 min in Tris.HCl (50 mM, pH 7.5, 0.5 mL) containing 10 μM oleoylglycerol (Sigma-Aldrich, St. Louis, Mo.). […] The residues were suspended in 100 μL of chloroform/methanol (1:3, v:v) and analyzed by LC-MS.

[6] = target: cathepsin D (h) (Homo sapiens (Human), UniProt P07339); assay: Cerep enzyme inhibition screen: cathepsin D; assay type: biochemical; conditions: mean of two determinations, read-out: Inhibitory activity (% Inh. at 10 μM), mean
cathepsin D (h), sequence (P07339 65-412): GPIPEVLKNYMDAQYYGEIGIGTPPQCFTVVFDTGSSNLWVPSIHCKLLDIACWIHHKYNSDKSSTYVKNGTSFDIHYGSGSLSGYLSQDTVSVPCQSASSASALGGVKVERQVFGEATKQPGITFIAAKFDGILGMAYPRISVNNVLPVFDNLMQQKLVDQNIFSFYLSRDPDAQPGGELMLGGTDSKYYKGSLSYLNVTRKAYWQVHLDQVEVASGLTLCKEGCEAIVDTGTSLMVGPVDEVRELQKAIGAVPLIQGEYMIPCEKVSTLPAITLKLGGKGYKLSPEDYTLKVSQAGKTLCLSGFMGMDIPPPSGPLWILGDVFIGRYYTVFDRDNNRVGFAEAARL
Text: as §4

[7] = target: sPLA2 (h) (type V) (Homo sapiens (Human), UniProt P39877); assay: Cerep enzyme inhibition screen: sPLA2; assay type: biochemical; conditions: mean of two determinations, read-out: Inhibitory activity (% Inh. at 10 μM), mean
sPLA2 (h) (type V), sequence (P39877 21-138): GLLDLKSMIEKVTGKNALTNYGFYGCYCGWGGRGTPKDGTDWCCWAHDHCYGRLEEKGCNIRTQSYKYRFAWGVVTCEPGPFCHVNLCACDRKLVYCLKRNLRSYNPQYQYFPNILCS
Text: as §4

T1 sequence (Q13510 22-142): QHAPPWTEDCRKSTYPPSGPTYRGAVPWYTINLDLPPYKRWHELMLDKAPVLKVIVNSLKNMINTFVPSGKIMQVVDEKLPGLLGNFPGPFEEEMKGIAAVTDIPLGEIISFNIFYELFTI
T1 sequence (Q13510 143-395): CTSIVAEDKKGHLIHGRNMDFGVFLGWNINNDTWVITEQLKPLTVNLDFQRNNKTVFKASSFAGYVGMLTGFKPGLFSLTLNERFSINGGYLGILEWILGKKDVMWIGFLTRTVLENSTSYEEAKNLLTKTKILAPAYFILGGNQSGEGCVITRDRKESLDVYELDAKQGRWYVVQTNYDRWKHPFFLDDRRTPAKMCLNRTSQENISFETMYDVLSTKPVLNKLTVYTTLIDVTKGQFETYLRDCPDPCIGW

| SMILES | AC activity [1] | AC activity [2] | AC activity [3] | activity towards the off-target enzyme set [4] | MAG-hydrolysing activity in brain, liver, fat and heart [5] | inhibition at 10 µM [6] [%] | inhibition at 10 µM [7] [%] |
| --- | --- | --- | --- | --- | --- | --- | --- |
| O=C(NCCCCc1ccccc1)n1c(=O)oc2cc(Br)ccc21 [Example 7, 6-Bromo-2-oxo-N-(4-phenylbutyl)-1,3-benzoxazole-3-carboxamide] | reduction in AC activity | reduction in AC activity |  |  |  |  |  |
| O=C(NCCCCc1ccccc1)n1c(=O)oc2cc(-c3ccc(F)cc3)ccc21 [Example 25, 6-(4-Fluorophenyl)-2-oxo-N-(4-phenylbutyl)-1,3-benzoxazole-3-carboxamide] |  |  | concentration dependent reduction in AC activity | has not any significant activity | did not cause inhibition of MAG-hydrolysing activity; also recorded: no inhibitory activity | 67 | 1.1 |
